PMC12726774, “HAEEPGP Peptide Efficiently Prevents Alzheimer's Disease Pathology in Vivo” (Alzheimer's & Dementia, 2025)
Read-outs that look alike come from different tables or passages of the source. Residues, ends and D or L forms follow the SMILES beside them. No end group written: not given here.

Assays:
Aβ = Aβ (Homo sapiens, UniProt P05067); assay: Isothermal titration calorimetry, interaction of HAEEPGP with Aβ; conditions: read-out: Kd of binding to Aβ
Source text: (§1) Abstract Background Currently, the only disease‐modifying therapy for Alzheimer's disease (AD) is monoclonal antibodies against beta‐amyloid (Aβ). […] Short peptides could be an alternative treatment to high‐molecular weight antibodies. They have been successfully tested against various neuropathologies. […] The disadvantage of short peptides is their rapid elimination from an organism. In this work, we added PGP amino acids to the HAEE C‐terminus to stabilize the peptide, studied the pharmacokinetics of HAEEPGP and its ability to suppress AD‐associated pathology. Method Direct interaction of HAEEPGP and Aβ peptides was measured by isothermal titration calorimetry. Pharmacokinetics and distribution to tissues of ^125I labeled HAEEPGP were studied after its intravenous injection in C57BL/6 or 5xFAD mice. HAEEPGP ability to prevent Aβ pathological effect on HMC3 microglial cells was assessed by flow cytometry and IL‐6 ELISA kit. HAEEPGP inhibition effect on AD pathology was studied in vivo using two animal models: transgenic C. elegans overexpressing human Aβ and 5xFAD mice. […] Supported by the Russian Science Foundation (grant #19‐74‐30007).

in vivo = conditions: mouse, plasma, iv
Source text: as §1

[1] = 125I labeled peptide
Source text: as §1

[2] = background statement, no reference given; cited from earlier work
Source text: They have been successfully tested against various neuropathologies. […] The disadvantage ...

Sequence of Aβ (P05067 672-713 limits assumed): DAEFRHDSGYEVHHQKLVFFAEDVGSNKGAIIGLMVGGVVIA

Molecule	Kd (Aβ) [µM]	half-life (in vivo) [min]	BBB crossing ([1]; intravenous injection, mice)	level in the mice brain over time ([1]; during an hour post-injection, intravenous)	level in the brain, 5xFAD vs wild type mice ([1]; intravenous, 5xFAD vs C57BL/6)	BBB crossing [2]	toxic effect in vivo [2]
HAEEPGP [HAEEPGP]	1.64	56 ± 12	propitiously crossed BBB	constantly increased	higher in 5xFAD than in wild type mice	–	–
C[C@H](NC(=O)[C@@H](N)Cc1c[nH]cn1)C(=O)N[C@@H](CCC(=O)O)C(=O)N[C@@H](CCC(=O)O)C(=O)O [HAEE] (H-HAEE-OH)	–	17	–	–	–	able to cross the BBB	no toxic effect
